# ± gives the standard deviation of the averaged measurements.
# Compound: CC(=O)N1CCc2c(c(N3CCCc4cc(-c5cnn(C)c5)c(C(F)F)cc43)nn2C2CCC(CN3CCN(c4ccc5c(c4)C(=O)N(C4CCC(=O)NC4=O)C5=O)CC3)CC2)C1 [CBPD-409]
# Assay: AUC of viability dose-response curve (relative to vehicle, 8 doses up to 10 µM) (fraction); higher = less sensitive (more viable); extreme values may be limits of the assay
# Experimental: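 PRISM multiplexed pooled barcoded cell line viability screen at the Broad Institute, 887 cancer cell lines treated with CBPD-409 (p300/CBP PROTAC degrader) at 8 concentrations in threefold dilution, top dose 10 µM. The read-out is the area under the dose-response curve of relative viability versus vehicle (n=3). AUC < 0.3 is called strongly sensitive and AUC > 0.8 resistant.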
row,Test System,AUC of viability dose-response curve
1,K029AX_SKIN,0.793
2,HUT78_HAEMATOPOIETIC_AND_LYMPHOID_TISSUE,1
3,MELJUSO_SKIN,1
4,SNGM_ENDOMETRIUM,0.527
5,SAOS2_BONE,0.466
6,A498_KIDNEY,0.943
7,KYO1_HAEMATOPOIETIC_AND_LYMPHOID_TISSUE,0.628
8,NCIH2030_LUNG,1
9,NCIH460_LUNG,1
10,JR_SOFT_TISSUE,0.34
11,NCIH2452_PLEURA,1
12,LPS141_SOFT_TISSUE,1
13,TUHR4TKB_KIDNEY,1
14,YD38_UPPER_AERODIGESTIVE_TRACT,0.559
15,HT_HAEMATOPOIETIC_AND_LYMPHOID_TISSUE,0.672
16,WM2664_SKIN,0.988
17,C75_LARGE_INTESTINE,1
18,LC1SQSF_LUNG,0.991
19,SG231_BILIARY_TRACT,0.46
20,HUPT4_PANCREAS,0.784
21,MOLT16_HAEMATOPOIETIC_AND_LYMPHOID_TISSUE,0.445
22,UMUC11_URINARY_TRACT,0.736

row,Test System,AUC of viability dose-response curve
1,CAL120_BREAST,0.497
2,CCLP1_BILIARY_TRACT,0.45
3,TASK1_CENTRAL_NERVOUS_SYSTEM,0.342
4,DETROIT562_UPPER_AERODIGESTIVE_TRACT,0.68
5,SKES1_BONE,0.286 ± 0.11
6,ISTMES1_PLEURA,0.481
7,KARPAS422_HAEMATOPOIETIC_AND_LYMPHOID_TISSUE,0.752
8,NCIH1048_LUNG,0.878
9,HT3_CERVIX,0.711
10,G292CLONEA141B1_BONE,0.585 ± 0.31
11,ABC1_LUNG,0.977
12,KU1919_URINARY_TRACT,0.267
13,HT55_LARGE_INTESTINE,0.509
14,HA1E_KIDNEY,0.542
15,CH157MN_CENTRAL_NERVOUS_SYSTEM,0.899
16,NB1_AUTONOMIC_GANGLIA,0.112 ± 0.083
17,HEC151_ENDOMETRIUM,1
18,SNU668_STOMACH,0.999
19,PC14_LUNG,0.877
20,YD10B_UPPER_AERODIGESTIVE_TRACT,1
21,1618K_TESTIS,0.518
22,9505BIK_PANCREAS,1

row,Test System,AUC of viability dose-response curve
1,WAOSEL_HAEMATOPOIETIC_AND_LYMPHOID_TISSUE,0.826
2,PATU8902_PANCREAS,0.689
3,ONDA9_CENTRAL_NERVOUS_SYSTEM,1
4,T3M10_LUNG,0.64
5,NCIH1944_LUNG,1
6,HSC1_SKIN,1
7,SNU1077_ENDOMETRIUM,0.846
8,SNU308_BILIARY_TRACT,0.95
9,TGBC52TKB_BILIARY_TRACT,0.745
10,PK1_PANCREAS,0.685
11,NCIH1573_LUNG,0.699
12,COGAR359_SOFT_TISSUE,1
13,HUO9_BONE,0.679
14,NCIH650_LUNG,0.606
15,CMLT1_HAEMATOPOIETIC_AND_LYMPHOID_TISSUE,0.666
16,KARPAS299_HAEMATOPOIETIC_AND_LYMPHOID_TISSUE,1
17,TE15_OESOPHAGUS,0.364
18,MKN45_STOMACH,0.238
19,MDAMB435S_SKIN,1
20,EGI1_BILIARY_TRACT,0.872

# Reference: the supplement of paper PMC12513837
